Results as given in patent US10934298B2, “Substituted pyrazolo[1,5-a]pyrimidines for the treatment of medical disorders” (BIAL—BioTech Investments, Inc., priority 2016, dated 2021).

Target: T1, glucocerebrosidase (Gcase) (Homo sapiens, UniProt P04062)
T1 construct: micellar solution containing 10 nM GCase and 100 nM saposin C
T1 sequence (P04062 40-536): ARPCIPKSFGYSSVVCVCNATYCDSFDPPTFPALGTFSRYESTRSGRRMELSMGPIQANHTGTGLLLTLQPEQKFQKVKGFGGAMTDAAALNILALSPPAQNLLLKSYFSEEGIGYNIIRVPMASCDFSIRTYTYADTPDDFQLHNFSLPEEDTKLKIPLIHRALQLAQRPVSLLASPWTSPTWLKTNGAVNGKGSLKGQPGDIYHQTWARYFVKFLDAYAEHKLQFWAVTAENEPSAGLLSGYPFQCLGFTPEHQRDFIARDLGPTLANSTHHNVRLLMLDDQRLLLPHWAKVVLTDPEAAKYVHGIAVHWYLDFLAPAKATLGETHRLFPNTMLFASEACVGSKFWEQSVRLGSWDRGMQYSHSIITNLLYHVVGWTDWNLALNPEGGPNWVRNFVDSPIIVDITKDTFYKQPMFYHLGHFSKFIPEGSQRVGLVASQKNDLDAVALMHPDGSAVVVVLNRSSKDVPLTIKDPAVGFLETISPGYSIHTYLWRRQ
Test: Glucocerebrosidase (Gcase) activation assay with 4-methylumbelliferyl-beta-D-glucopyranoside substrate, saposin C and phosphatidylserine/triton micelles, fluorescence readout
Assay type: biochemical
Outline: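 Test compounds are first screened at 1.0 and 0.1 μM final, then titrated in 8 points (3-fold from 5 μM) against human GCase with saposin C in phosphatidylserine/triton X-100 micelles at pH 4.7. Reactions run 15 min at room temperature, with fluorescence read at 365/440 nm.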

SMILES	Percent Gcase Activation, 0.1 μM Test Compound (0.1 μM test compound, Table 3A)	Percent Gcase Activation, 1 μM Test Compound (1 μM test compound, Table 3A)	Percent Gcase Activation, 0.1 μM Test Compound (0.1 μM test compound)	Percent Gcase Activation, 1 μM Test Compound (1 μM test compound)	other results
Cc1ncc(-c2cc(C)n3ncc(C(=O)N[C@@H](C4CC4)C(F)(F)F)c3n2)o1 [III-248]	–	–	–	–	Percent Gcase Activation, 0.1 μM Test Compound (test compound at 0.1 μM): *** (greater than 20% Gcase activation); Percent Gcase Activation, 1 μM Test Compound (test compound at 1.0 μM): +++ (Gcase activation greater than 60%)
Cc1cc(N2CCOCC2)nc2c(C(=O)NC(C)C3CC3)cnn12 (stereo not shown) [III-58]	* (less than 10% Gcase activation)	+ (less than 30% Gcase activation)	–	–	–
Cc1cc(-c2cc(F)ccc2C#N)nc2c(C(=O)N[C@@H](C)C3CC3)cnn12 [III-396]	–	–	*** (greater than 20% Gcase activation)	+++ (Gcase activation greater than 60%)	–
Cc1cc(-c2cccc3ncoc23)nc2c(C(=O)NC(C3CC3)C(F)(F)F)cnn12 (stereo not shown) [III-104]	–	–	–	–	Percent Gcase Activation, 0.1 μM Test Compound (test compound at 0.1 μM): *** (greater than 20% Gcase activation); Percent Gcase Activation, 1 μM Test Compound (test compound at 1.0 μM): +++ (Gcase activation greater than 60%)
Cc1ncc(F)cc1-c1cc(C)n2ncc(C(=O)N[C@H](C3CC3)C(F)(F)F)c2n1 [III-378]	–	–	** (Gcase activation in the range of 10% up to 20%)	+++ (Gcase activation greater than 60%)	–
Cc1cc(-c2cncc(Cl)c2)nc2c(C(=O)N[C@H](C3CC3)C(F)(F)F)cnn12 [III-120]	–	–	–	–	Percent Gcase Activation, 0.1 μM Test Compound (test compound at 0.1 μM): *** (greater than 20% Gcase activation); Percent Gcase Activation, 1 μM Test Compound (test compound at 1.0 μM): +++ (Gcase activation greater than 60%)
Cc1cc(N2CCCCC2)n2ncc(C(=O)N[C@@H](C)C3CC3)c2n1 [III-30]	* (less than 10% Gcase activation)	+ (less than 30% Gcase activation)	–	–	–
Cc1cc(-c2ccncc2)nc2c(C(=O)NC(C)C3CC3)cnn12 (stereo not shown) [III-28]	* (less than 10% Gcase activation)	++ (Gcase activation in the range of 30% up to 60%)	–	–	–
Cc1cc(-c2ccc3ocnc3c2)nc2c(C(=O)NC(C3CC3)C(F)(F)F)cnn12 (stereo not shown) [III-83]	*** (greater than 20% Gcase activation)	+++ (Gcase activation greater than 60%)	–	–	–
Cc1cc(-c2ccns2)nc2c(C(=O)N[C@@H](C3CC3)C(F)(F)F)cnn12 [III-101]	–	–	–	–	Percent Gcase Activation, 0.1 μM Test Compound (test compound at 0.1 μM): *** (greater than 20% Gcase activation); Percent Gcase Activation, 1 μM Test Compound (test compound at 1.0 μM): +++ (Gcase activation greater than 60%)
COc1ccncc1-c1cc(C)n2ncc(C(=O)NC(C)C(F)(F)F)c2n1 (stereo not shown) [III-269]	–	–	–	–	Percent Gcase Activation, 0.1 μM Test Compound (test compound at 0.1 μM): * (less than 10% Gcase activation); Percent Gcase Activation, 1 μM Test Compound (test compound at 1.0 μM): + (less than 30% Gcase activation)
Cc1cc(-c2ccccn2)nc2c(C(=O)NC(C)C(F)(F)F)cnn12 (stereo not shown) [III-50]	** (Gcase activation in the range of 10% up to 20%)	+++ (Gcase activation greater than 60%)	–	–	–
Cc1cc(-c2ccoc2F)nc2c(C(=O)N[C@H](C)C(F)(F)F)cnn12 [III-335]	–	–	*** (greater than 20% Gcase activation)	+++ (Gcase activation greater than 60%)	–
Cc1cc(-c2cccc3nc[nH]c23)nc2c(C(=O)NC(C3CC3)C(F)(F)F)cnn12 (stereo not shown) [III-308]	–	–	* (less than 10% Gcase activation)	+++ (Gcase activation greater than 60%)	–
Cc1cc(N2CCN(c3ccccc3)C2=O)nc2c(C(=O)N[C@H](C3CC3)C(F)(F)F)cnn12 [III-330]	–	–	** (Gcase activation in the range of 10% up to 20%)	++ (Gcase activation in the range of 30% up to 60%)	–
Cc1cc(-c2cccnc2)nc2c(C(=O)N[C@H](C)c3ccc(Cl)cc3)cnn12 [III-37]	** (Gcase activation in the range of 10% up to 20%)	+++ (Gcase activation greater than 60%)	–	–	–
Cc1cc(-c2sccc2C#N)nc2c(C(=O)NC(C)C(F)(F)F)cnn12 (stereo not shown) [III-300]	–	–	*** (greater than 20% Gcase activation)	+++ (Gcase activation greater than 60%)	–
